Earlier results on one molecule are cited in patent US20100179106A1, “MITOCHONDRIAL COMPOSITIONS AND USES THEREOF” (Gencia Corporation, priority 2007, published 2010).

The test system of one data set is brain slice cultures. Particulars: 20 mM creatine, brain slice cultures (Li et al. 2004).
Data set [1] relates to patients with mitochondrial disorders. Particulars: short-term study, creatine supplementation (Tarnopolsky et al. 1997).
Details of data set [2]: dose or concentration left out as unconfirmed. The following applies: dosages as high as (Harris et al. 1992).

On to `CN(CC(=O)O)C(=N)N` [creatine, 2-(carbamimidoyl-methyl-amino) acetic acid], for which, in the data set on brain slice cultures, the mitochondrial activity entry is listed as “sufficient to stimulate mitochondrial activity”. Further, in data set [1], the “high-intensity anaerobic and aerobic activities” value was “improved”; the lower-intensity aerobic activities result is reported as “no effect”. Also, in data set [2], the side effects entry is “no reported side effects”.
